How the values were obtained:
[1] = excess molar enthalpy (molar enthalpy of mixing); xn = mol fraction of the nth substance listed; settings: 323.15 K, 101 kPa, Liquid, Flow calorimetry
[2] = 293.15 K; 101.33 kPa; Liquid; Vibrating tube method

C1CCCCC1 [cyclohexane] + CCO
[1]
Settings	excess molar enthalpy [kcal/mol]
x2 = 0.032	0.106
x2 = 0.054	0.132
x2 = 0.102	0.169
x2 = 0.151	0.192
x2 = 0.202	0.207
x2 = 0.251	0.217
x2 = 0.3	0.223
x2 = 0.351	0.226
x2 = 0.401	0.226
x2 = 0.452	0.223
x2 = 0.5	0.217
x2 = 0.551	0.209
x2 = 0.601	0.198
x2 = 0.65	0.185
x2 = 0.707	0.165
x2 = 0.75	0.15
x2 = 0.802	0.127
x2 = 0.851	0.101
x2 = 0.901	0.0722
x2 = 0.951	0.038

CCCCCCC [heptane]
Settings	mass density [kg/m3]
[2]	683.91

CCO [ethanol]
Settings	mass density [kg/m3]
[2]	789.29

CCCCCCC [heptane] + CCCO
[1]
Settings	excess molar enthalpy [kcal/mol]
x2 = 0.01	0.0963
x2 = 0.024	0.142
x2 = 0.034	0.161
x2 = 0.053	0.188
x2 = 0.103	0.229
x2 = 0.154	0.254
x2 = 0.203	0.269
x2 = 0.254	0.279
x2 = 0.301	0.283
x2 = 0.353	0.282
x2 = 0.402	0.277
x2 = 0.451	0.27
x2 = 0.503	0.26
x2 = 0.551	0.247
x2 = 0.602	0.232
x2 = 0.651	0.214
x2 = 0.702	0.195
x2 = 0.75	0.174
x2 = 0.801	0.147
x2 = 0.851	0.124
x2 = 0.901	0.0987
x2 = 0.951	0.0717

C1CCCCC1 [cyclohexane]
Settings	mass density [kg/m3]
[2]	778.56

CCCCCCCC [octane] + CCCO
[1]
Settings	excess molar enthalpy [kcal/mol]
x2 = 0.027	0.202
x2 = 0.053	0.254
x2 = 0.103	0.31
x2 = 0.15	0.337
x2 = 0.208	0.359
x2 = 0.254	0.367
x2 = 0.301	0.37
x2 = 0.352	0.367
x2 = 0.401	0.363
x2 = 0.452	0.351
x2 = 0.5	0.337
x2 = 0.55	0.32
x2 = 0.602	0.297
x2 = 0.652	0.268
x2 = 0.702	0.242
x2 = 0.752	0.214
x2 = 0.802	0.181
x2 = 0.852	0.148
x2 = 0.901	0.106
x2 = 0.95	0.0784

CC(C)=O [acetone] + CCO
[1]
Settings	excess molar enthalpy [kcal/mol]
x2 = 0.05	0.0609
x2 = 0.102	0.115
x2 = 0.15	0.156
x2 = 0.2	0.192
x2 = 0.252	0.222
x2 = 0.3	0.243
x2 = 0.352	0.259
x2 = 0.4	0.269
x2 = 0.452	0.273
x2 = 0.501	0.272
x2 = 0.551	0.265
x2 = 0.6	0.255
x2 = 0.65	0.24
x2 = 0.702	0.22
x2 = 0.752	0.196
x2 = 0.8	0.168
x2 = 0.85	0.134
x2 = 0.901	0.0937
x2 = 0.95	0.0504

CCCO [propan-1-ol]
Settings	mass density [kg/m3]
[2]	803.63

CC(C)=O [acetone]
Settings	mass density [kg/m3]
[2]	790.31

CCCCCCCC [octane]
Settings	mass density [kg/m3]
[2]	702.87

CC(C)=O [acetone] + CCCO
[1]
Settings	excess molar enthalpy [kcal/mol]
x2 = 0.025	0.0605
x2 = 0.052	0.0968
x2 = 0.101	0.154
x2 = 0.151	0.202
x2 = 0.2	0.245
x2 = 0.252	0.282
x2 = 0.302	0.311
x2 = 0.351	0.334
x2 = 0.401	0.349
x2 = 0.451	0.359
x2 = 0.501	0.363
x2 = 0.551	0.361
x2 = 0.601	0.354
x2 = 0.651	0.34
x2 = 0.702	0.32
x2 = 0.752	0.295
x2 = 0.8	0.265
x2 = 0.851	0.223
x2 = 0.901	0.168
x2 = 0.952	0.112
x2 = 0.975	0.0803

CCCCCCCC [octane] + CCO
[1]
Settings	excess molar enthalpy [kcal/mol]
x2 = 0.028	0.206
x2 = 0.054	0.257
x2 = 0.104	0.303
x2 = 0.151	0.326
x2 = 0.201	0.343
x2 = 0.252	0.355
x2 = 0.304	0.357
x2 = 0.352	0.355
x2 = 0.404	0.348
x2 = 0.452	0.337
x2 = 0.502	0.323
x2 = 0.551	0.307
x2 = 0.601	0.288
x2 = 0.651	0.267
x2 = 0.7	0.245
x2 = 0.752	0.217
x2 = 0.801	0.191
x2 = 0.85	0.16
x2 = 0.901	0.121
x2 = 0.95	0.0813
